What is called melting point is the temperature, or range, at which the solid turns liquid. In turn, `CCCCOC(=O)C(NC(=O)OCc1ccccc1)c1ccc(O)cc1` (stereo not given) registered a melting point of 143 to 144 °C. For the molecule `CC(C)CCCC(C)C1CCC2(CC(=O)O)C3=C(CCC12C)C1(C)CCC(O)CC1CC3` (stereo not given), the melting point lay within 191 to 193 °C. Molecule `CC(C)c1ccc2c(c1)CCN2C(=O)Nc1cccnc1` gave a melting point of 163 to 165 °C. In the case of `CSc1ccc(C(=O)Cc2ccccc2)cc1Cl` it was 101 to 102 °C; in that of `CCN(CC)c1ccc(-n2c(C(F)(F)F)nn(C)c2=S)c(Cl)c1`, 108 to 110 °C; in that of `CCOC(C)=NS(=O)(=O)c1nc(-c2ccccc2Cl)ns1`, 70 to 72 °C. In the case of `N#Cc1cc(Cl)cc(Oc2ccc(CC(=O)Nc3ccc(CS(N)(=O)=O)cc3)cc2Br)c1` it was 133 to 135 °C.

In turn, `O=C(Nc1ccc(C2CCN(Cc3ccccc3)CC2)cc1)c1ccccc1-c1ccc(C(F)(F)F)cc1` yielded a melting point of 134 °C.

Consider `N#Cc1ccc(-c2ccc(SC3SCC(O)C(O)C3O)cc2)cc1` (stereo not given), for which the melting point was determined as 168 °C. In the case of `O=C1C=C(C(F)F)C(=O)c2ccccc21` it was 74 °C; in that of `CC1=C(C#N)C(c2cccc3nnc(-c4ccccc4)cc23)C(C(=O)OC(C)C)=C(C)N1` (stereo not given), 200 to 202 °C.

In the case of `Cc1cc2c(cc1C)C1(CO2)C(=O)N(CC2CCOCC2)c2ccccc21` (stereo not given), the melting point was in the range of 199 to 201 °C. The molecule `CN1C2=C(CSC2)C(=O)Nc2cc(Cl)c(Cl)cc21` displayed a melting point of 281 to 283 °C. For the molecule `CC1(C)C(=O)Nc2cc3oc(-c4csnn4)nc3cc21`, the melting point was greater than 250 °C.

Molecule `O=C(Nc1ccc(OC(F)(F)F)cc1)c1c(O)c2ccccc2oc1=O` showed a melting point of 194 to 195 °C.

For `O=c1oc(=O)n(-c2cccc(F)c2)c2ncccc12`, the melting point fell in the range of 164 to 166 °C. For `O=C1OCCN1CCCN1C(=O)N2C[C@@H](Cc3ccccc3)N=C2c2[nH]c(C3CCCC3)nc21`, the melting point is 210 to 212 °C. In the case of `COCCO[C@@H]1c2ccc3c(nc(C)n3C3CC3)c2O[C@H](c2ccccc2)[C@H]1O` it was 183 °C. For the molecule `O=C(O)c1ccc(-c2nnc3n2-c2cccnc2Nc2ccccc2-3)cc1`, the melting point is greater than 300 °C. In the case of `O=C1NC(C(Cl)(Cl)Cl)Nc2ccc(I)cc21` (stereo not given) it was 224 to 225 °C; in that of `COC(=O)C1(NC(=O)Cc2cc(C(C)=O)ccc2C)CCN(OC)CC1`, 138 to 139 °C. Molecule `COc1ccc(C2COc3c(ccc(O)c3O)C2)cc1OC` (stereo not given) showed a melting point of 176 °C. For the molecule `CC(C)(C)OC(=O)Nc1ccc(-c2ccc(-c3ccccc3)cc2)cc1N`, the melting point was 206 to 207 °C. In the case of `C#CCC#CCC#CCOc1ccc(C)cc1` it was 34.5 to 35.5 °C. In the case of `O=c1[nH]c2cc(Cl)ccc2c(O)c1-c1ccc(I)cc1` it was greater than 350 °C.

The molecule `O=C1Nc2ccccc2CCC1N1C(=O)c2ccccc2C1=O` (stereo not given) registered a melting point of 261 to 263 °C.

`N#Cc1ccc(Oc2ccc3c(c2)CCNC3=O)nc1` yielded a melting point of 192 to 194 °C. Regarding `CC(C)CCOc1c(Sc2ccc(C(C)(C)C)cc2)c(Sc2ccccc2N)c(OCCC(C)C)c2c1C(=N)NC2=N`, the melting point lay within 198 to 199 °C. The molecule `CC(C)(C)c1cc(-c2nn(C(=O)c3cccs3)c3ncccc23)cc(C(C)(C)C)c1O` gave a melting point of 240 to 242 °C.

As to `Cc1cc(C#N)cc(-c2ccc3c(c2)C(C)(C)OC(=O)N3)c1`, the melting point was in the range of 256 to 258 °C. In the case of `Cc1cc(C(O)(C(F)(F)F)C(F)(F)F)cc(C)c1OCC(=O)NCc1ccccc1` it was 142 to 144 °C. Molecule `O=C(NCCCCC1CCSS1)NCCCCC1CCSS1` (stereo not given) came in with a melting point of 115 to 116 °C.

In turn, `CCOC(=O)c1cc(-c2nccs2)[nH]c1C(CC1CCOCC1)c1ccc(S(=O)(=O)C2CC2)cc1` (stereo not given) registered a melting point of 178 to 179 °C.

Molecule `OC1(c2ccc3c(c2)OCO3)C(c2ccc(Cl)cc2)SC2=NCCCCN21` (stereo not given) came in with a melting point of 105 to 107 °C.

`CCC(=O)N1CCC(NC(=O)Nc2ccc(Cl)c(C(F)(F)F)c2)CC1` displayed a melting point of 182 to 184 °C.

Values taken from a melting point compilation (Tetko et al.; mined from patent text by program, amines drawn as free bases though some values may be those of a salt).
